Here are results for three compounds from US11155586B2, “Cystine knot scaffold platform” (Genentech, Inc., priority 2015, dated 2021).

One assay addresses T1, hVEGF(8-109) (Homo sapiens, UniProt P15692).
T1 construct: hVEGF(8-109) or BSA were coated on 384-well MAXISORP™ immunoplates
T1 sequence (P15692 214-315): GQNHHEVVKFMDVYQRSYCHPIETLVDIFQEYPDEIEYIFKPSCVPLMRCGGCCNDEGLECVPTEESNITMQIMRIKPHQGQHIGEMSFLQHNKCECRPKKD
The experiment in a line: Spot phage ELISA. It is filed as binding. In outline: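 Clones counted positive when hVEGF(8-109) signal exceeded BSA background by over 3-fold, per spot ELISA using anti-M13-HRP/TMB detection. Phage came from overnight 37° C. cultures of individual clones picked after four binding rounds, supernatant diluted 1:3.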

Another assay has as its target T2, VEGF mouse 164 (Mus musculus, UniProt Q00731).
T2 sequence (Q00731 27-190 isoform Q00731-2): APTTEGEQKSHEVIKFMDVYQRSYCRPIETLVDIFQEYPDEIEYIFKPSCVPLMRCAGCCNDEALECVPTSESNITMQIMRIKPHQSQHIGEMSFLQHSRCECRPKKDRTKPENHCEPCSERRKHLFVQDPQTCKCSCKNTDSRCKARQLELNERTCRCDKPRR
The assay is described as follows: SPR binding assay. The settings on record: for ka / kd: mouse 164, Table 30. On the procedure: (§1) Depending on the format of the assay either a streptavidin sensor (SA) or a dextran-coated (CM5) sensor was utilized as described below.
(§2) For use with the SA sensor, VEGF-A was first biotinylated (no more than 2 biotin/VEGF-A) by incubating the protein with EZ-link NHS-PEG4-Biotin (Pierce) in a 1:1.5 molar ratio respectively, in PBS for 2 hours on ice. Reaction was then quenched by addition of 10 molar excess of Glycine pH 8.0 and the sample was buffer exchanged into PBS using an Amicon 0.5 mL 3000 MWCO ultra-centrifugal filters (EMD Millipore). The biotinylation state of the protein was verified by LC-MS analysis. Biotinylated VEGF-A was then captured on the surface until a resonance unit (RU) signal of about ˜400. For immobilization of VEGF-A on CM5 sensor, the surface was first activated with a mixture of N-ethyl-N′-(3-dimethylaminopropyl)carbodiimide hydrochloride and N-hydroxysuccinimide (EDC/NHS) according to the supplier instructions. VEGF-A was then diluted into coupling buffer (0.1 M Acetate Buffer, pH 5.0) and injected until the signal reached about ˜400 RU followed by a wash with 1 M ethanolamine pH 8.0 to quench remaining activated sites.
(§3) Following the capture step, a series of the peptide concentrations were prepared in HBS-EP buffer with matching DMSO concentrations to 0.1% and injected at a flow rate of […]. The resulting sensorgrams were then analyzed using a 1:1 binding model to obtain kinetic data and affinities using Scrubber 2.0 (BioLogic Software).
(In general: Surface plasmon resonance follows binding to a sensor surface in real time, without labels.)

A further assay deals with T3, rat VEGF-A (Rattus norvegicus, UniProt P16612).
T3 sequence (P16612 27-139 limits assumed): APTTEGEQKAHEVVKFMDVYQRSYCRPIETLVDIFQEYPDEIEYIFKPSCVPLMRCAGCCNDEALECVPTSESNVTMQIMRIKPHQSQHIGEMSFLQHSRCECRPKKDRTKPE
The experiment in a line: SPR binding assay. The settings on record: for ka / kd: rat, Table 30. As for the experimental part: as §1, §2, §3

For the next assay, the target named is T4, VEGF human 165 (Homo sapiens, UniProt P15692).
T4 sequence (P15692 27-191 isoform P15692-4): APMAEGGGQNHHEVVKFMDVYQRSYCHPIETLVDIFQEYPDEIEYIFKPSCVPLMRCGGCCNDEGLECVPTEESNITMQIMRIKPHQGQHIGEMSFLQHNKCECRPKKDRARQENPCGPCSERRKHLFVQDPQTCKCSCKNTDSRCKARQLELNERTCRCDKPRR
The assay is described as follows: SPR binding assay. The settings on record: for ka / kd: human 165, Table 30. On the procedure:
as §1, §2, §3

The target in a further assay is T5, rabbit VEGF-A (Oryctolagus cuniculus, UniProt G1T1L9).
T5 sequence (G1T1L9 1-398): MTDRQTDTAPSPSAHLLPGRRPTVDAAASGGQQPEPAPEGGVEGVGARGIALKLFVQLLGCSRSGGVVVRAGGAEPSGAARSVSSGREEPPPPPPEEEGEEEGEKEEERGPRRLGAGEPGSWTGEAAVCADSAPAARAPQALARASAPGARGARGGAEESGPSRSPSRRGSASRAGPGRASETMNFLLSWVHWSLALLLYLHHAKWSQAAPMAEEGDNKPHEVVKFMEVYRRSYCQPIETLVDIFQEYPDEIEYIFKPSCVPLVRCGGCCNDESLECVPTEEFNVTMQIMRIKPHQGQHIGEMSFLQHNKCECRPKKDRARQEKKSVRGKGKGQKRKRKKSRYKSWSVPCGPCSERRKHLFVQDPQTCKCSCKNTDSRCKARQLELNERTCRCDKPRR
The experiment in a line: SPR binding assay. The settings on record: for ka / kd: rabbit, Table 30. On the procedure:
as §1, §2, §3

Another assay deals with T6, VEGF-A and KDR (Homo sapiens, UniProt P15692).
T6 sequence (P15692 207-395): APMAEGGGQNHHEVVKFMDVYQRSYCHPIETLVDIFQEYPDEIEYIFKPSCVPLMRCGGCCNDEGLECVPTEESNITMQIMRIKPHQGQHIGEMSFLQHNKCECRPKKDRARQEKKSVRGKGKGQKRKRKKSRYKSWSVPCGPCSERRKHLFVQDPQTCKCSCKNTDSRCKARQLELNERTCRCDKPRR
The experiment in a line: Competition ELISA, KDR-VEGF interaction. The format is binding. On the procedure: Binding specificity of each peptide was established by competition ELISA. […] After blocking with block buffer (PBS with 0.5% BSA and 0.05% TWEEN®20) for 2 hours at room temperature, the receptor-Fc fusions or biotinylated receptors were serially diluted using assay buffer (PBS with 0.5% BSA and 0.05% TWEEN®20) and incubated for 1 hour at room temperature. […] Competition ELISA was conducted in an identical fashion as described above except after blocking, a mixture of serially diluted peptide containing a constant concentration of receptor-Fc fusion or biotinylated receptor (concentration of receptor was set to EC60) was added and incubated for 1 hour. All recombinant human proteins and antibodies were purchased from R &D Systems (Minneapolis, Minn.).

The target of another assay is T7, hVEGF-A (8-109) (Homo sapiens, UniProt P15692).
T7 sequence (P15692 214-315): T1 sequence (P15692 214-315)
The assay is described as follows: Phage competition ELISA. It is filed as binding. On the technique in general: An ELISA detects its analyte on a solid surface through an enzyme-linked reagent.

SMILES strings stand for the structures. Positions of bridges follow the written chain, without caps; N, C: chain ends. Residues, ends and D or L forms follow the SMILES beside them.

On to `CC[C@H](C)[C@@H]1NC(=O)[C@H](CC(=O)O)NC(=O)[C@@H]2CCCN2C(=O)CNC(=O)[C@@H]2CSSC[C@H](NC(=O)[C@H](CC(=O)O)NC1=O)C(=O)N[C@@H](CC(C)C)C(=O)N[C@@H](C)C(=O)NCC(=O)N[C@H](C(=O)N[C@H](C(=O)N[C@H]1CSSC[C@@H](C(=O)NCC(=O)O)NC(=O)[C@H](CO)NC(=O)[C@H](CC(N)=O)NC(=O)[C@H](Cc3ccc(O)cc3)NC(=O)[C@H](Cc3c[nH]c4ccccc34)NC(=O)[C@H](Cc3c[nH]cn3)NC1=O)C(C)C)CSSC[C@H](NC(=O)CN)C(=O)N[C@@H](CC(=O)O)C(=O)N[C@@H](C(C)C)C(=O)N[C@@H](CCSC)C(=O)N[C@@H](CCC(N)=O)C(=O)N1CCC[C@H]1C(=O)N[C@@H](Cc1ccc(O)cc1)C(=O)N[C@@H](Cc1c[nH]c3ccccc13)C(=O)NCC(=O)N2` [VEGF_CKP9.63.12] (H-GCDVMQPYWGCGPDIDCLAGCVCHWYNSCG-OH; disulfide 2-21, 11-17, 23-29 (inferred); N-terminus and C-terminus assumed), for which, at hVEGF(8-109) (Table 27), the “S/N (signal to noise ratio as compared to BSA control)” value is 39.9. Also, the ELISA at hVEGF(8-109) (loop 2 variants based on VEGF_CKP9.63 framework, Table 27) is given as 2.6. Besides, the ka at VEGF mouse 164 is given as 1.04 × 10^6; at rat VEGF-A it was 6.44 × 10^6; at VEGF human 165 it was 4.65 × 10^6; on rabbit VEGF-A, 6.91 × 10^6. In addition, the kd on VEGF mouse 164 is on record as 1.32 × 10^−2; on rat VEGF-A, 2.59 × 10^−2; on VEGF human 165, 2.01 × 10^−2; at rabbit VEGF-A, 1.78 × 10^−2.
As usually defined, the IC50 is the concentration at which inhibition is half-maximal. Low readings indicate inhibition by little substance, high ones a need for much substance. By Kd is commonly meant the free concentration of one partner at which half of the binding sites on the other are occupied at equilibrium, for simple one-to-one binding. Read a high Kd as lower affinity. As to `CC[C@H](C)[C@@H]1NC(=O)[C@H](CC(N)=O)NC(=O)[C@@H](NC(=O)CN)CSSC[C@@H](C(=O)N[C@H](C(=O)N[C@H]2CSSC[C@@H](C(=O)NCC(=O)O)NC(=O)[C@H](CO)NC(=O)[C@H](CCC(N)=O)NC(=O)[C@H](Cc3ccc(O)cc3)NC(=O)[C@H](Cc3ccc(O)cc3)NC(=O)[C@H](CCC(N)=O)NC2=O)C(C)C)NC(=O)CNC(=O)[C@H](C)NC(=O)[C@H](CC(C)C)NC(=O)[C@@H]2CSSC[C@H](NC(=O)CNC(=O)[C@H](Cc3c[nH]c4ccccc34)NC(=O)[C@H](Cc3ccccc3)NC(=O)[C@@H]3CCCN3C(=O)[C@H](CC(C)C)NC(=O)[C@H](CCSC)NC1=O)C(=O)NCC(=O)N[C@@H](CCCNC(=N)N)C(=O)N[C@@H](CC(=O)O)C(=O)N[C@@H](Cc1ccccc1)C(=O)N[C@@H](CCC(=O)O)C(=O)N2` [VEGF_CKP9.54.90] (H-GCNIMLPFWGCGRDFECLAGCVCQYYQSCG-OH; disulfide 2-21, 11-17, 23-29; N-terminus and C-terminus assumed), the “S/N (signal to noise ratio as compared to BSA control)” value at hVEGF(8-109) (Table 26) stood at 29.5. Besides, the ELISA on hVEGF(8-109) (loop 2 variants based on 9.54 framework, Table 26) is 2.3. Further, the 50% inhibitory concentration (IC50) on VEGF-A and KDR is 0.2 nM. For the same compound, the “disruption of the interaction between VEGF-A and KDR” value at VEGF-A and KDR (FIGS. 2A and 2B) is “disrupts”. The dissociation constant (Kd) at VEGF mouse 164 came out at 1.31 nM; on rat VEGF-A, 0.9 nM; at VEGF human 165, 0.89 nM; at rabbit VEGF-A, 1.14 nM. For the same compound, the ka is on record as 8.71 × 10^6 on VEGF mouse 164, 1.72 × 10^7 on rat VEGF-A, 1.58 × 10^7 on VEGF human 165 and 5.15 × 10^7 at rabbit VEGF-A. Also, the kd on VEGF mouse 164 is on record as 1.01 × 10^−2; at rat VEGF-A it was 1.35 × 10^−2; on VEGF human 165 it was 1.33 × 10^−2; at rabbit VEGF-A, 6.75 × 10^−2.
Turning to `CC[C@H](C)[C@@H]1NC(=O)[C@H](CC(N)=O)NC(=O)[C@@H](NC(=O)CN)CSSC[C@@H](C(=O)N[C@H](C(=O)N[C@H]2CSSC[C@@H](C(=O)NCC(=O)O)NC(=O)[C@H](CO)NC(=O)[C@H](CCC(N)=O)NC(=O)[C@H](Cc3ccc(O)cc3)NC(=O)[C@H](Cc3ccc(O)cc3)NC(=O)[C@H](CCC(N)=O)NC2=O)C(C)C)NC(=O)CNC(=O)[C@H](C)NC(=O)[C@H](CC(C)C)NC(=O)[C@@H]2CSSC[C@H](NC(=O)CNC(=O)[C@H](Cc3c[nH]c4ccccc34)NC(=O)[C@H](Cc3ccccc3)NC(=O)[C@@H]3CCCN3C(=O)[C@H](CC(C)C)NC(=O)[C@H](CCSC)NC1=O)C(=O)N[C@@H](CCCCN)C(=O)N[C@@H](CCC(N)=O)C(=O)N[C@@H](CC(=O)O)C(=O)N[C@@H](CO)C(=O)N[C@@H](CC(=O)O)C(=O)N2` [VEGF_CKP9.54] (H-GCNIMLPFWGCKQDSDCLAGCVCQYYQSCG-OH; disulfide 2-21, 11-17, 23-29 (inferred); N-terminus and C-terminus assumed), the IC50 on hVEGF-A (8-109) is 450 nM; at VEGF-A and KDR, 5.8 nM. Also, the “S/N (signal to noise ratio as compared to BSA control)” value on hVEGF(8-109) (Table 24) was determined as 28.4. Besides, the ELISA on hVEGF(8-109) (VEGF_CKP9 Loop1/Loop5 affinity-matured variants, Table 24) was 2.1. Moreover, the Kd on VEGF mouse 164 stood at 250 nM; at rat VEGF-A, 176 nM; on VEGF human 165, 190 nM; at rabbit VEGF-A it was 133 nM. Besides, the ka is reported as 8.26 × 10^5 at VEGF mouse 164, 1.93 × 10^6 at rat VEGF-A, 8.23 × 10^5 on VEGF human 165 and 2.10 × 10^6 at rabbit VEGF-A. The kd at VEGF mouse 164 is recorded as 2.07 × 10^−1; on rat VEGF-A it was 2.96 × 10^−1; at VEGF human 165 it was 1.49 × 10^−1; at rabbit VEGF-A, 2.74 × 10^−1.
